Results on four molecules are retold here after ChEMBL document CHEMBL2203030, “Synthesis, characterization, antidepressant and antioxidant activity of novel piperamides bearing piperidine and piperazine analogues” (Bioorg Med Chem Lett, 2012).

The test system of series [1] is Staphylococcus aureus. Briefly: Antimicrobial activity against Staphylococcus aureus NCIM 5021 at 10 ug/disc incubated for 24 hrs by agar disc diffusion method. The format is functional. As to conditions: NCIM 5021, 24 h, read-out: IZ. A general note: In agar diffusion tests the substance spreads into inoculated agar from a disc or well.
Series [2] has as its system Staphylococcus aureus. Briefly: Antimicrobial activity against Staphylococcus aureus NCIM 5021 by broth dilution method. The class given is functional. For orientation: Broth dilution looks for growth in wells or tubes with falling amounts of substance.
Series [3] deals with Escherichia coli. Briefly: Antimicrobial activity against Escherichia coli NCIM 2574 at 10 ug/disc incubated for 24 hrs by agar disc diffusion method. The format is functional. As to conditions: NCIM 2574, 24 h, read-out: IZ.
The test system of series [4] is Escherichia coli. Briefly: Antimicrobial activity against Escherichia coli NCIM 2574 by broth dilution method. The format is functional.
Series [5] has as its system Bacillus subtilis. Briefly: Antimicrobial activity against Bacillus subtilis NCIM 2999 at 10 ug/disc incubated for 24 hrs by agar disc diffusion method. The class given is functional. Particulars: NCIM 2999, 24 h, read-out: IZ.
The subject of series [6] is Bacillus subtilis. Briefly: Antimicrobial activity against Bacillus subtilis NCIM 2999 by broth dilution method. The class given is functional.
The subject of series [7] is Pseudomonas aeruginosa. Briefly: Antimicrobial activity against Pseudomonas aeruginosa NCIM 5029 by broth dilution method. The class given is functional.
The subject of series [8] is Pseudomonas aeruginosa. Briefly: Antimicrobial activity against Pseudomonas aeruginosa NCIM 5029 at 10 ug/disc incubated for 24 hrs by agar disc diffusion method. The format is functional. Particulars: NCIM 5029, 24 h, read-out: IZ.
In series [9] the test system is Staphylococcus aureus. Briefly: Antimicrobial activity against Staphylococcus aureus NCIM 5021 at 100 ug/mL incubated for 24 hrs by agar disc diffusion method. The class given is functional. As to conditions: NCIM 5021, 24 h, read-out: IZ.
The test system of series [10] is Candida albicans. Briefly: Antimicrobial activity against Candida albicans NCIM 3471 by broth dilution method. The format is functional.
Series [11] has as its system Radical scavenging activity. Briefly: Antioxidant activity assessed as DPPH free radical scavenging activity by spectrophotometry. The class given is functional. (In general: The DPPH test is a chemical assay of radical scavenging.)
Series [12] concerns Mus musculus. Briefly: Antidepressant activity in Swiss albino mouse assessed as mean immobility time measured during last 4 mins of single 6 mins test session at 20 mg/kg, po by forced swim test (reference value: 75.33 +/- 3.35 secs). The format is functional.
The target of series [13] is T1, Amine oxidase [flavin-containing] B (Mus musculus, UniProt Q8BW75).
T1 sequence (Q8BW75 whole entry): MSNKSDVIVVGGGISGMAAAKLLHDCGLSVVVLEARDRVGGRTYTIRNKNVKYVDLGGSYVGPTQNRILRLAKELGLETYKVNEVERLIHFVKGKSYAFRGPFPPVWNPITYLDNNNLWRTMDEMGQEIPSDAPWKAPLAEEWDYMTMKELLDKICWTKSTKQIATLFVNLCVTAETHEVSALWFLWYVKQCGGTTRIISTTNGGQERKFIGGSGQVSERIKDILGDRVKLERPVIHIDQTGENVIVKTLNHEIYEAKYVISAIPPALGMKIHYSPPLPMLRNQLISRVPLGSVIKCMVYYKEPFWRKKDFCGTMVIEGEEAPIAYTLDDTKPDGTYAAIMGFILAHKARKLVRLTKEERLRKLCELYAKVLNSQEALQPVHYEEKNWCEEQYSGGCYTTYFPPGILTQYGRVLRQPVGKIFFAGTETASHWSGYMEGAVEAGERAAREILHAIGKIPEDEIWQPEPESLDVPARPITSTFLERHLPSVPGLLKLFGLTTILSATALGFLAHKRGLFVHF
Briefly: Inhibition of MAOB in mouse brain mitochondrial fraction assessed as enzyme activity per mg of protein using beta-PEA substrate incubated for 20 mins by UV-spectrophotometry. The class given is tissue-based.

In series [14] the test system is Aspergillus flavus. Briefly: Antimicrobial activity against Aspergillus flavus NCIM 524 at 100 ug/mL incubated for 48 hrs by agar disc diffusion method. As to conditions: NCIM 524, 48 h, read-out: IZ. The class given is functional.
The test system of series [15] is Aspergillus flavus. Briefly: Antimicrobial activity against Aspergillus flavus NCIM 524 by broth dilution method. The format is functional.
For series [16], the system named is Mus musculus. Briefly: Antidepressant activity in Swiss albino mouse assessed as mean immobility time measured during 6 mins period at 20 mg/kg, po administered 30 mins before test by tail suspension test (reference value: 185.7 +/- 5.33 secs). The format is functional.
In series [17] the test system is Candida albicans. Briefly: Antimicrobial activity against Candida albicans NCIM 3471 at 100 ug/mL incubated for 48 hrs by agar disc diffusion method. The format is functional. As to conditions: NCIM 3471, 48 h, read-out: IZ.
The subject of series [18] is Bacillus subtilis. Briefly: Antimicrobial activity against Bacillus subtilis NCIM 2999 at 100 ug/mL incubated for 24 hrs by agar disc diffusion method. As to conditions: NCIM 2999, 24 h, read-out: IZ. The format is functional.
The target of series [19] is T2, Amine oxidase [flavin-containing] A (Mus musculus, UniProt Q64133).
T2 sequence (Q64133 whole entry): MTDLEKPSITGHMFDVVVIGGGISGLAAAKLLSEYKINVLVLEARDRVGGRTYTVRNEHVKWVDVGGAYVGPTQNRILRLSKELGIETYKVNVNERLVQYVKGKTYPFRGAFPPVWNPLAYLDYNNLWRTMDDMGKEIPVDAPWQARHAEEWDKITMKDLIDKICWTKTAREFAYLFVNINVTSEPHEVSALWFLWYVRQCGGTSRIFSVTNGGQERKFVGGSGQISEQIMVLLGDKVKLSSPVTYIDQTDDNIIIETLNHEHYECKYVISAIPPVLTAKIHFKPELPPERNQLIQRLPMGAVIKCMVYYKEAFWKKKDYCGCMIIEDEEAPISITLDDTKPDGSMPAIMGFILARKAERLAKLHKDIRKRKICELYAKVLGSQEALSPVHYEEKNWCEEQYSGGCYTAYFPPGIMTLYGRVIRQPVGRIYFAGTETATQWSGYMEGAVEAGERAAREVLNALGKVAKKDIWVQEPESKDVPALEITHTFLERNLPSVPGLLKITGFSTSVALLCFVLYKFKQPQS
Briefly: Inhibition of MAOA in mouse brain mitochondrial fraction assessed as enzyme activity per mg of protein using 5-HT substrate incubated for 20 mins by UV-spectrophotometry. The class given is tissue-based.

Series [20] can be described thus: Antioxidant activity assessed as superoxide scavenging activity using xanthine-xanthine oxidase system by NBT dye reduction based assay. The class given is functional.
For series [21], the system named is Pseudomonas aeruginosa. Briefly: Antimicrobial activity against Pseudomonas aeruginosa NCIM 5029 at 100 ug/mL incubated for 24 hrs by agar disc diffusion method. The class given is functional. Particulars: NCIM 5029, 24 h, read-out: IZ.
Series [22] concerns Escherichia coli. Briefly: Antimicrobial activity against Escherichia coli NCIM 2574 at 100 ug/mL incubated for 24 hrs by agar disc diffusion method. The format is functional. Particulars: NCIM 2574, 24 h, read-out: IZ.
Series [23] deals with Aspergillus flavus. Briefly: Antimicrobial activity against Aspergillus flavus NCIM 524 at 10 ug/disc incubated for 48 hrs by agar disc diffusion method. The format is functional. Particulars: NCIM 524, 48 h.
In series [24] the test system is Candida albicans. Briefly: Antimicrobial activity against Candida albicans NCIM 3471 at 10 ug/disc incubated for 48 hrs by agar disc diffusion method. The class given is functional. As to conditions: NCIM 3471, 48 h, read-out: IZ.

Molecules are shown by their SMILES. Values after ≈ are worked out from the molar mass of the structure shown.

In general, MIC refers to the lowest concentration found to suppress growth. Low readings indicate a more susceptible organism, high ones a less susceptible organism. Turning to `CN[C@@H]1[C@H](O[C@H]2[C@H](O[C@H]3[C@H](O)[C@@H](O)[C@H](N=C(N)N)[C@@H](O)[C@@H]3N=C(N)N)O[C@@H](C)[C@]2(O)C=O)O[C@@H](CO)[C@H](O)[C@H]1O` [STREPTOMYCIN], the zone of inhibition at 10 µg/disc in the series with Staphylococcus aureus [1] was determined as 11.6 mm; in the series with Escherichia coli [3], 14.5 mm; in the series on Bacillus subtilis [5], 10.4 mm; with Pseudomonas aeruginosa [8], 14 mm. Besides, the MIC against Staphylococcus aureus [2], with Escherichia coli [4], against Bacillus subtilis [6] and in the series on Pseudomonas aeruginosa [7] was 5 µg/mL (≈ 8.6 µM) in each case.
One may read the IC50 as the concentration that gives 50% inhibition. For the molecule `COc1cc(/C=C/C(=O)N2CCCCC2)cc2c1OCO2`, the zone of inhibition at 100 µg/mL with Staphylococcus aureus [9] amounted to 10 mm; in the series on Aspergillus flavus [14], 11 mm; with Candida albicans [17], 12.5 mm; in the series with Bacillus subtilis [18] it was 13 mm; with Pseudomonas aeruginosa [21] it was 16 mm; in the series on Escherichia coli [22] it was 15 mm. In addition, the MIC against Candida albicans [10] came out at 28 µg/mL (≈ 96.8 µM); in the series on Staphylococcus aureus [2] it was 24 µg/mL (≈ 82.9 µM); with Aspergillus flavus [15] it was 30 µg/mL (≈ 104 µM); with Escherichia coli [4], 30 µg/mL (≈ 104 µM); against Bacillus subtilis [6], 26 µg/mL (≈ 89.9 µM); with Pseudomonas aeruginosa [7], 30 µg/mL (≈ 104 µM). Moreover, the IC50 was determined as 14.9 µg/mL (≈ 51.5 µM) in [11] and 18.2 µg/mL (≈ 62.9 µM) in series [20]. Further, the Time came to 32.15 s in the series on Mus musculus [12] and 78.18 s in the series with Mus musculus [16]. For the same molecule, the Activity turned out to be 18.01 nmol in series [13] and 17.09 nmol in series [19].
In the case of `OC(Cn1cncn1)(Cn1cncn1)c1ccc(F)cc1F` [FLUCONAZOLE], the minimal inhibitory concentration (MIC) in the series on Candida albicans [10] and in the series on Aspergillus flavus [23] was 5 µg/mL (≈ 16.3 µM) each time. The zone of inhibition at 100 µg/mL in the series with Aspergillus flavus [14] was 19 mm. Further, in the series with Candida albicans [24], the zone of inhibition at 10 µg/disc is 16 mm.
Consider `COc1cc(/C=C/C(=O)N2CCCC(O)C2)cc2c1OCO2` (stereo not drawn), for which the zone of inhibition at 100 µg/mL in the series on Staphylococcus aureus [9] was found to be 8 mm; in the series with Aspergillus flavus [14], 10 mm; in the series with Candida albicans [17], 18 mm; in the series on Bacillus subtilis [18] it was 11 mm; in the series on Pseudomonas aeruginosa [21], 12 mm; in the series with Escherichia coli [22], 7 mm. In addition, the MIC against Candida albicans [10] was 100 µg/mL (≈ 328 µM); in the series on Staphylococcus aureus [2], 50 µg/mL (≈ 164 µM); in the series with Aspergillus flavus [15], > 100 µg/mL; with Escherichia coli [4], > 100 µg/mL; against Bacillus subtilis [6], 62 µg/mL (≈ 203 µM); in the series with Pseudomonas aeruginosa [7] it was > 100 µg/mL. Also, the IC50 in series [11] was 13.4 µg/mL (≈ 43.9 µM); in series [20] it was 16.9 µg/mL (≈ 55.3 µM). Further, the Time in the series on Mus musculus [12] is 35.4 s; with Mus musculus [16], 84.2 s. The Activity in series [13] is listed as 17.33 nmol; in series [19], 16.63 nmol.
